# Structures can show the parent of a compound that is named as a salt.
# Experiments:
# [1] = target: T1, FAAH (Homo sapiens, UniProt O00519); assay: Assay Method 1: FAAH assay, 3H-anandamide hydrolysis in homogenate of T84 cells or SK-N-MC cells transfected with human FAAH
# T1 sequence (O00519 1-579): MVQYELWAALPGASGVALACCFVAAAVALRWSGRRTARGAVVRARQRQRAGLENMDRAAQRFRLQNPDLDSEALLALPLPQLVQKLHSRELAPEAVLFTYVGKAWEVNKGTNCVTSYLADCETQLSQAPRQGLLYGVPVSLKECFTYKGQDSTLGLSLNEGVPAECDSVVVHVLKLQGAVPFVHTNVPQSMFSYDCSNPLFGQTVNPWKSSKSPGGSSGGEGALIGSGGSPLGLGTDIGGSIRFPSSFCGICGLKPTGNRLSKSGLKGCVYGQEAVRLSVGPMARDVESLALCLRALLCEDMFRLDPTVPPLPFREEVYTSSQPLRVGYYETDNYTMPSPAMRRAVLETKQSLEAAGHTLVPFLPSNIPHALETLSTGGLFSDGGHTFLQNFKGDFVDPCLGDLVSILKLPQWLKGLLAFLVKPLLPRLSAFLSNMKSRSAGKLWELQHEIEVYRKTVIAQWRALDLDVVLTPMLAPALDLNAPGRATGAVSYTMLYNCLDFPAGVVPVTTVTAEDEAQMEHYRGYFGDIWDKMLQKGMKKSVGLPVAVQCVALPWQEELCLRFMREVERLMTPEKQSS
# [2] = target: T2, Rat FAAH-1 (Rattus norvegicus, UniProt P97612); assay: Assay Method 2: rat FAAH-1 assay, 3H-anandamide hydrolysis in homogenate of SK-N-MC cells transfected with rat FAAH
# T2 sequence (P97612 1-579): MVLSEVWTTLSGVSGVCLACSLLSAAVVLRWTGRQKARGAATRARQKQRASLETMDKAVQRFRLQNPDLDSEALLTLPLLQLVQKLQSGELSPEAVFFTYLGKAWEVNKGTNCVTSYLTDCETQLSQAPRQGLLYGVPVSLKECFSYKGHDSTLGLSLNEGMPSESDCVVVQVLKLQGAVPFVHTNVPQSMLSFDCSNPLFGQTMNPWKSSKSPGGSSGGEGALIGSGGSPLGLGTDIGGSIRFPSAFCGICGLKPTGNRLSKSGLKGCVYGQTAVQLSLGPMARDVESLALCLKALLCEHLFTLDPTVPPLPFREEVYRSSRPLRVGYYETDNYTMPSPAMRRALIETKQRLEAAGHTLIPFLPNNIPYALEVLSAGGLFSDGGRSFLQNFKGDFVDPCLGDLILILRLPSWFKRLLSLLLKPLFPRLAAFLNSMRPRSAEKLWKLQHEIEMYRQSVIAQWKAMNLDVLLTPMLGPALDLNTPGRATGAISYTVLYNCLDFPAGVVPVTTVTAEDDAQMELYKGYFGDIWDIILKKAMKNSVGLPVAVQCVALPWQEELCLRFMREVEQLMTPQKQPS
# Protocol: The assay mixture consisted of 50 μL of the cell homogenate, 10 μL of the test compound, and 40 μL of anandamide [1-^3H-ethanolamine] (^3H-AEA, Perkin-Elmer, 10.3 Ci/mmol), which was added last, for a final tracer concentration of 80 nM. The reaction mixture was incubated at rt for 1 h. During the incubation, 96-well Multiscreen filter plates (catalog number MAFCNOB50; Millipore, Bedford, Mass., USA) were loaded with 25 μL of activated charcoal (Multiscreen column loader, catalog number MACL09625, Millipore) and washed once with 100 μL of MeOH. […] After the 1 h incubation, 60 μL of the reaction mixture were transferred to the charcoal plates, which were then assembled on top of the DYNEX plates using Centrifuge Alignment Frames (catalog number MACF09604, Millipore). The unbound labeled ethanolamine was centrifuged through to the bottom plate (5 min at 2000 rpm), which was preloaded with the scintillant, as described above. The plates were sealed and left at rt for 1 h before counting on a Hewlett Packard TopCount.
IC50 [1],IC50 [2],SMILES
31 nM,160 nM,"O[C@@H](CNc1cc(-c2cc3cc(C(F)(F)F)ccc3s2)ncn1)c1ccccc1 [Example 184, (1R)-1-Phenyl-2-({6-[5-(trifluoromethyl)-1-benzothiophen-2-yl]pyrimidin-4-yl}amino)ethanol trifluoroacetic acid salt]"
1200 nM,1000 nM,"OC(CNc1cc(-c2ccc(OC(F)(F)F)cc2)ncn1)c1cc(Cl)cc(Cl)c1 (stereo not drawn) [Example 126, 1-(3,5-Dichlorophenyl)-2-[(6-{4-[(trifluoromethyl)oxy]phenyl}-pyrimidin-4-yl)amino]ethanol]"
66 nM,42 nM,"OC(CNc1cc(-c2ccc(C(F)(F)F)c(Cl)c2)ncn1)c1ccsc1 (stereo not drawn) [Example 168, 2-({6-[3-Chloro-4-(trifluoromethyl)phenyl]pyrimidin-4-yl}amino)-1-thiophen-3-ylethanol]"
132 nM,153 nM,"O=[N+]([O-])c1ccc(-c2cc(NCC(O)c3ccccc3)ncn2)cc1 (stereo not drawn) [Example 5, 2-{[6-(4-Nitrophenyl)pyrimidin-4-yl]amino}-1-phenylethanol trifluoroacetic acid salt]"
9 nM,10 nM,"O[C@@H](CNc1cc(-c2ccc3c(C(F)(F)C(F)(F)F)noc3c2)ncn1)c1ccc(F)cc1 [Example 176, (1R)-1-(4-fluorophenyl)-2-({6-[3-(pentafluoroethyl)-1,2-benzisoxazol-6-yl]pyrimidin-4-yl}amino)ethanol trifluoroacetic acid salt]"
500 nM,120 nM,"OC(CNc1cc(-c2ccc(C(F)(F)F)c(Cl)c2)ncn1)c1ccc2c(c1)OCCO2 (stereo not drawn) [Example 199, 2-({6-[3-Chloro-4-(trifluoromethyl)phenyl]pyrimidin-4-yl}amino)-1-(2,3-dihydro-1,4-benzodioxin-6-yl)ethanol]"
341 nM,663 nM,"N#Cc1ccc(-c2cc(NCC(O)c3ccccc3)ncn2)cc1 (stereo not drawn) [Example 226, 4-{6-[(2-Hydroxy-2-phenylethyl)amino]pyrimidin-4-yl}benzonitrile]"
240 nM,1000 nM,"OC(CNc1cc(-c2ccc(C(F)(F)F)c(Cl)c2)ncn1)c1cc(-c2ccc(Cl)cc2Cl)no1 (stereo not drawn) [Example 215, 2-[6-(3-Chloro-4-trifluoromethyl-phenyl)-pyrimidin-4-ylamino]-1-[3-(2,4-dichloro-phenyl)-isoxazol-5-yl]-ethanol]"
1600 nM,> 10000 nM,"CC(C)(C)NS(=O)(=O)c1ccc(-c2cc(NC[C@H](O)c3ccccc3)ncn2)cc1 [Example 171, N-tert-Butyl-4-(6-{[(2R)-2-hydroxy-2-phenylethyl]amino}pyrimidin-4-yl)benzenesulfonamide]"
210 nM,654 nM,"O[C@@H](CNc1cc(-c2ccc(F)c(Cl)c2)ncn1)c1ccccc1 [Example 83, (1R)-2-{[6-(3-Chloro-4-fluorophenyl)pyrimidin-4-yl]amino}-1-Phenylethanol trifluoroacetic acid salt]"
27 nM,19 nM,"OC(CNc1cc(-c2ccc(C(F)(F)F)c(Cl)c2)ncn1)c1ccc(F)c(Cl)c1 (stereo not drawn) [Example 134, 1-(3-Chloro-4-fluorophenyl)-2-({6-[3-chloro-4-(trifluoromethyl)phenyl]pyrimidin-4-yl}amino)ethanol trifluoroacetic acid salt]"
170 nM,150 nM,"OC(CNc1cc(-c2ccc(C(F)(F)F)c(Cl)c2)ncn1)c1ccccc1OC(F)F (stereo not drawn) [Example 189, 2-({6-[3-Chloro-4-(trifluoromethyl)phenyl]pyrimidin-4-yl}amino)-1-[2-(difluoromethoxy)phenyl]ethanol]"
7000 nM,> 10000 nM,"Oc1ccc(-c2cc(NCC(O)c3ccccc3)ncn2)cc1 (stereo not drawn) [Example 238, 4-[6-(2-Hydroxy-2-phenyl-ethylamino)-pyrimidin-4-yl]-phenol]"
104 nM,470 nM,"O[C@@H](CNc1cc(-c2cc(F)cc(F)c2)ncn1)c1ccccc1 [Example 58, (1R)-2-{[6-(3,5-Difluorophenyl)pyrimidin-4-yl]amino}-1-phenylethanol trifluoroacetic acid salt]"
150 nM,290 nM,"OCCNc1nc(NC[C@H](O)c2ccccc2)cc(-c2ccc(C(F)(F)F)c(Cl)c2)n1 [Example 160, (1R)-2-({6-[3-Chloro-4-(trifluoromethyl)phenyl]-2-[(2-hydroxyethyl)amino]pyrimidin-4-yl}amino)-1-phenylethanol trifluoroacetic acid salt]"
190 nM,1000 nM,"O[C@@H](CNc1cc(-c2cccc(C(F)(F)F)c2)ncn1)c1ccccc1 [Example 105, (1R)-1-Phenyl-2-({6-[3-(trifluoromethyl)phenyl]pyrimidin-4-yl}amino)ethanol]"
6 nM,28 nM,"CSc1nc(NC[C@H](O)c2ccccc2)cc(-c2ccc(C(F)(F)F)c(Cl)c2)n1 [Example 60, (1R)-2-({6-[3-Chloro-4-(trifluoromethyl)phenyl]-2-(methylsulfanyl)pyrimidin-4-yl}amino)-1-phenylethanol trifluoroacetic acid salt]"
3 nM,21 nM,"CCOc1ccc(-c2cc(NC[C@H](O)c3ccccc3)ncn2)cc1C [Example 31, (1R)-2-{[6-(4-Ethoxy-3-methylphenyl)pyrimidin-4-yl]amino}-1-Phenylethanol trifluoroacetic acid salt]"
3 nM,57 nM,"CC(C)Sc1ccc(-c2cc(NC[C@H](O)c3ccccc3)ncn2)cc1 [Example 91, (1R)-2-[(6-{4-[(1-Methylethyl)sulfanyl]phenyl}pyrimidin-4-yl)amino]-1-phenylethanol trifluoroacetic acid salt]"
80 nM,14 nM,"OC(CNc1cc(-c2ccc(C(F)(F)F)c(Cl)c2)ncn1)c1cc(C(F)(F)F)ccc1F (stereo not drawn) [Example 205, 2-({6-[3-Chloro-4-(trifluoromethyl)phenyl]pyrimidin-4-yl}amino)-1-[2-fluoro-5-(trifluoromethyl)phenyl]ethanol]"
7000 nM,2000 nM,"O[C@H](CNc1cc(-c2ccc(C(F)(F)F)c(Cl)c2)ncn1)c1ccc(Cl)c(F)c1 [Example 145, (1S)-1-(4-Chloro-3-fluoro-phenyl)-2-[6-(3-chloro-4-trifluoromethyl-phenyl)-pyrimidin-4-ylamino]-ethanol]"
8 nM,20 nM,"CC(C)Oc1ccc(-c2cc(NC[C@H](O)c3ccccc3)ncn2)cc1F [Example 36, (1R)-2-({6-[3-Fluoro-4-(1-methylethoxy)phenyl]pyrimidin-4-yl}amino)-1-phenylethanol trifluoroacetic acid salt]"
400 nM,8000 nM,"CC(C)COc1ccc(-c2cc(NC[C@H](O)c3ccccc3)ncn2)cc1 [Example 37, (1R)-2-({6-[4-(2-Methylpropoxy)phenyl]pyrimidin-4-yl}amino)-1-phenylethanol trifluoroacetic acid salt]"
38 nM,6000 nM,"CN(C)c1ccc(-c2cc(NC[C@H](O)c3ccccc3)ncn2)cc1 [Example 65, (1R)-2-({6-[4-(Dimethylamino)phenyl]pyrimidin-4-yl}amino)-1-phenylethanol]"
183 nM,152 nM,"O[C@@H](CNc1cc(-c2ccc(C(F)(F)F)c(Cl)c2)nc(C(F)(F)F)n1)c1ccccc1 [Example 93, (1R)-2-({6-[3-Chloro-4-(trifluoromethyl)phenyl]-2-(trifluoromethyl)pyrimidin-4-yl}amino)-1-phenylethanol trifluoroacetic acid salt]"
307 nM,1000 nM,"O[C@@H](CNc1cc(-c2ccc(F)c(F)c2)ncn1)c1ccccc1 [Example 59, (1R)-2-{[6-(3,4-Difluorophenyl)pyrimidin-4-yl]amino}-1-phenylethanol trifluoroacetic acid salt]"
2000 nM,> 10000 nM,"O[C@@H](CNc1cc(-c2ccc(C(F)(C(F)(F)F)C(F)(F)F)cc2)ncn1)c1ccccc1 [Example 219, (1R)-Phenyl-2-{6-[4-(1,2,2,2-tetrafluoro-1-trifluoromethyl-ethyl)-phenyl]-pyrimidin-4-ylamino}-ethanol]"
